In PMC10175918 (Communications Biology, 2023):
Where two headings read alike, the source gives them in different places.

Legend:
Assay in all cases: TGFα-shedding assay-based GPCR screening with chimeric Gα subunit proteins
Type in all cases: cell-based
[1] = molecular target: T1, 348 GPCRs (Homo sapiens, UniProt P48145); conditions: 10µM, Favipiravir 100μM
T1 construct: expressed in transfected cells; host or cells: HEK293A
T1 sequence (P48145 1-328): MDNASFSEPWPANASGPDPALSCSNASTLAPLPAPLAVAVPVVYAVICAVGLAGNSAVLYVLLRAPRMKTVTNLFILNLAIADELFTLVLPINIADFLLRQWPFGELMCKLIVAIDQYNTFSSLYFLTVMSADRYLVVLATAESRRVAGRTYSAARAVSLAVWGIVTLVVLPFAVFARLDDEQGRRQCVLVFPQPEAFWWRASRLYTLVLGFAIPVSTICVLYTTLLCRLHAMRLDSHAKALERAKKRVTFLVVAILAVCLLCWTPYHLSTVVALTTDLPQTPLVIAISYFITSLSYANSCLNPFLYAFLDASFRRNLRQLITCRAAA

[2] = molecular target: 348 GPCRs (Homo sapiens, UniProt O43193); conditions: 10µM, Favipiravir 100μM
[3] = molecular target: T2, 348 GPCRs (Homo sapiens, UniProt P30559)
T2 construct: expressed in transfected cells; host or cells: HEK293A
T2 sequence (P30559 1-389): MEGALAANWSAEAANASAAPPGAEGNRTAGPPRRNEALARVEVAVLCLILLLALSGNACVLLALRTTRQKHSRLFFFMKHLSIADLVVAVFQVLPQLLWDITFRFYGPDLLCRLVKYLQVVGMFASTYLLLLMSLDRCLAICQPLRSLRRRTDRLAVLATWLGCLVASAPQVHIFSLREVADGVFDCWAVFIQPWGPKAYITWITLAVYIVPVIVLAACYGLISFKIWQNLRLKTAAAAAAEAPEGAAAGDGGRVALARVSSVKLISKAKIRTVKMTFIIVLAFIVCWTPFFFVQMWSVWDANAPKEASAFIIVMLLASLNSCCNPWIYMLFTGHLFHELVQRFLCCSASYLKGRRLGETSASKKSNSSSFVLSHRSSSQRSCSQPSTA

[4] = molecular target: T3, 348 GPCRs (Homo sapiens, UniProt Q8TDV2); conditions: 10µM, Favipiravir 100μM
T3 construct: expressed in transfected cells; host or cells: HEK293A

[5] = molecular target: T4, 348 GPCRs (Homo sapiens, UniProt P50391); conditions: 10µM, Favipiravir 100μM
T4 construct: expressed in transfected cells; host or cells: HEK293A

[6] = molecular target: T5, 348 GPCRs (Homo sapiens, UniProt Q96RI9); conditions: 10µM, Favipiravir 100μM
T5 construct: expressed in transfected cells; host or cells: HEK293A
T5 sequence (Q96RI9 1-348): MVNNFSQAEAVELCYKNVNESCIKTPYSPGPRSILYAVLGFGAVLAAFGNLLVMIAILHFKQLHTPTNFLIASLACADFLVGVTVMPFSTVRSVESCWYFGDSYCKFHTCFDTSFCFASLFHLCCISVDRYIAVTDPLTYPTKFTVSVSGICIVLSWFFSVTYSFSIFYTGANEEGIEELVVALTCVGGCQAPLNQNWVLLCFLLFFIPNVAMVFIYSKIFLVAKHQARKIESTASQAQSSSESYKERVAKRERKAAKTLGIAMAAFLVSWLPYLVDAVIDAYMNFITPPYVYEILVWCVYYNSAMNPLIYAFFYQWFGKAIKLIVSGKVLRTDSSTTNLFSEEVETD

[7] = molecular target: T6, 348 GPCRs (Homo sapiens, UniProt Q9GZP7)
T6 construct: expressed in transfected cells; host or cells: HEK293A
T6 sequence (Q9GZP7 1-353): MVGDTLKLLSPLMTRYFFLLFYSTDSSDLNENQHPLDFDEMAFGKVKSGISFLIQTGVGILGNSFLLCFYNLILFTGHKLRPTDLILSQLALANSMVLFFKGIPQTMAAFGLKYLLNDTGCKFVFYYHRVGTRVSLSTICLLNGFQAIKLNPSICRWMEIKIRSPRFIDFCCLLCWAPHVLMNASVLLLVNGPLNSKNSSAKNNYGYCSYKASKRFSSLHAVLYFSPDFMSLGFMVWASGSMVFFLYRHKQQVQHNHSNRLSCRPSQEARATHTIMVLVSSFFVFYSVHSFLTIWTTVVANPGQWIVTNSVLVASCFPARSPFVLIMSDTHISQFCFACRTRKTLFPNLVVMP

[8] = molecular target: T7, 348 GPCRs (Homo sapiens, UniProt P32248); conditions: CCR7 (C-C motif chemokine receptor 7); 10µM, Favipiravir 100μM
T7 construct: expressed in transfected cells; host or cells: HEK293A
T7 sequence (P32248 25-378): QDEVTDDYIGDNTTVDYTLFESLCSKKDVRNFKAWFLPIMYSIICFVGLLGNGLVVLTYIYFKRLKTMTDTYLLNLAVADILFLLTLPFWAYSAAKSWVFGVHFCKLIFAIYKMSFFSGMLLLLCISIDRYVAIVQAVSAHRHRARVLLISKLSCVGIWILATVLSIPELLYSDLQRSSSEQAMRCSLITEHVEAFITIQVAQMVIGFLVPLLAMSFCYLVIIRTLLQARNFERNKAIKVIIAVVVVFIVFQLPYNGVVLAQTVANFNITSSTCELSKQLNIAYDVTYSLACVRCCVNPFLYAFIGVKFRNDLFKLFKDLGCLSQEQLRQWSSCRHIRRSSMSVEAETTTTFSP

[9] = molecular target: T8, 348 GPCRs (Homo sapiens, UniProt P04000); conditions: 10µM, Favipiravir 100μM
T8 construct: expressed in transfected cells; host or cells: HEK293A
T8 sequence (P04000 1-364): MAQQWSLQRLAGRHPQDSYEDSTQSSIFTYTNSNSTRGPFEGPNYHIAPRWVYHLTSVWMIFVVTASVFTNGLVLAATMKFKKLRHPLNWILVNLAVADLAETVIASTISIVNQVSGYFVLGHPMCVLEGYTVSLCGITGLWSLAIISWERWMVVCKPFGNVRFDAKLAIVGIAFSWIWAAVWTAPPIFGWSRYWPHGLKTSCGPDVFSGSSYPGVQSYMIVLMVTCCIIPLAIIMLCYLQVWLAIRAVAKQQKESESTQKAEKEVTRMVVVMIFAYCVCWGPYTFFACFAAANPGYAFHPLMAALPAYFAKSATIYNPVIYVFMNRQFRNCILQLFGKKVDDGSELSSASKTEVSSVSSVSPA

[10] = NPBWR1 (neuropeptides B and W receptor 1), read-out: % GPCR activation compared to TPA
[11] = MLNR (motilin receptor), read-out: % GPCR activation compared to TPA
[12] = GPCR OXTR (oxytocin Receptor), read-out: % GPCR activation compared to TPA
[13] = GPR148 (G Protein-Coupled Receptor 148), read-out: % GPCR activation compared to TPA
[14] = NPY4R (neuropeptide Y receptor Y4), read-out: % GPCR activation compared to TPA
[15] = TAAR9 (trace amine associated receptor 9), read-out: % GPCR activation compared to TPA
[16] = GPCR VN1R1 (vomeronasal 1 receptor), read-out: % GPCR activation compared to TPA
[17] = OPN1LW (opsin 1 (cone pigments), long-wave-sensitive), read-out: % GPCR activation compared to TPA
[18] = read-out: % GPCR activation compared to TPA, NPBWR1 (neuropeptides B and W receptor 1)
[19] = read-out: % GPCR activation compared to TPA, MLNR (motilin receptor)
[20] = read-out: % GPCR activation compared to TPA, GPCR OXTR (oxytocin Receptor)
[21] = read-out: % GPCR activation compared to TPA, GPR148 (G Protein-Coupled Receptor 148)
[22] = read-out: % GPCR activation compared to TPA, NPY4R (neuropeptide Y receptor Y4)
[23] = read-out: % GPCR activation compared to TPA, TAAR9 (trace amine associated receptor 9)
[24] = read-out: % GPCR activation compared to TPA, GPCR VN1R1 (vomeronasal 1 receptor)
[25] = read-out: % GPCR activation compared to TPA, OPN1LW (opsin 1 (cone pigments), long-wave-sensitive)

T3 sequence (Q8TDV2 whole entry): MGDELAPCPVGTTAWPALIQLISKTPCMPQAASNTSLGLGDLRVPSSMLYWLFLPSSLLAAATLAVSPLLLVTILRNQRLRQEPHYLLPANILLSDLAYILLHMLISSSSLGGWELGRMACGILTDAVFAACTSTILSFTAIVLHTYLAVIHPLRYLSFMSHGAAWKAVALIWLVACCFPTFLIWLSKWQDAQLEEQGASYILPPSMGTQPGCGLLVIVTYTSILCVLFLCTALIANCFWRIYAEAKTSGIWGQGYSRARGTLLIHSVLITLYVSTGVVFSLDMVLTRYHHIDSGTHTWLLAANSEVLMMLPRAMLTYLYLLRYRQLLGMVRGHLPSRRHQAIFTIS
Chain of 348 GPCRs (Homo sapiens, UniProt O43193) (O43193 whole entry): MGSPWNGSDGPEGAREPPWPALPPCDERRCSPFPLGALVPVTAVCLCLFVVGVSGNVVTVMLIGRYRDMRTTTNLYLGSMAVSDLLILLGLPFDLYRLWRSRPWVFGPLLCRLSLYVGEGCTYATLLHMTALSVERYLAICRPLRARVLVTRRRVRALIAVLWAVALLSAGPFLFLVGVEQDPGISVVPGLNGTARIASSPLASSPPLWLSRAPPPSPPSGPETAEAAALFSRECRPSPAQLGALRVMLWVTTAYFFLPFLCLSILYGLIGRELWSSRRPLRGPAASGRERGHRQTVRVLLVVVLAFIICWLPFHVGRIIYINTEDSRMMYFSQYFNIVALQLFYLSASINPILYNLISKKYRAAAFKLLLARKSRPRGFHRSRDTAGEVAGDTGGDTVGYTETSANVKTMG
T4 sequence (P50391 whole entry): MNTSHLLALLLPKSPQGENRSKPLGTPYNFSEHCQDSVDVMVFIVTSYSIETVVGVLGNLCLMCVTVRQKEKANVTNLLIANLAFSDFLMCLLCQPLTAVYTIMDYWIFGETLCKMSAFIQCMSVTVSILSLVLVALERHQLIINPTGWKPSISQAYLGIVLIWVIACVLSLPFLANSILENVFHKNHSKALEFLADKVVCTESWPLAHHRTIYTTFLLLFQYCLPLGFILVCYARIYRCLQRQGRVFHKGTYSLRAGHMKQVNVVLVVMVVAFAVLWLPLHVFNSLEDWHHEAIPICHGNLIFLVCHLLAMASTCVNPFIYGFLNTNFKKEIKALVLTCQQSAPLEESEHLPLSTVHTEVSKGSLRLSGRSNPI

activation at 10 µM [1, 10] [%]	activation at 100 µM [2, 11] [%]	activation at 10 µM [3, 12] [%]	activation at 100 µM [4, 13] [%]	activation at 100 µM [5, 14] [%]	activation at 100 µM [6, 15] [%]	activation at 10 µM [7, 16] [%]	% GPCR activation compared to TPA [8] [%]	activation at 100 µM [9, 17] [%]	activation at 100 µM ([3]; GPCR OXTR (oxytocin Receptor), 100μM, read-out: % GPCR activation compared to TPA) [%]	activation at 100 µM ([7]; GPCR VN1R1 (vomeronasal 1 receptor), 100μM, read-out: % GPCR activation compared to TPA) [%]	Structure (SMILES)	activation at 10 µM [1, 18] [%]	activation at 100 µM [2, 19] [%]	activation at 10 µM [3, 20] [%]	activation at 100 µM [4, 21] [%]	activation at 100 µM [5, 22] [%]	activation at 100 µM [6, 23] [%]	activation at 10 µM [7, 24] [%]	activation at 100 µM [9, 25] [%]
-1.75	-7.84	-1.2	-2.05	-1.48	-2.32	2.87	-0.998	-0.985			N#C[C@@]1(c2ccc3c(N)ncnn23)O[C@H](CO)[C@@H](O)[C@H]1O [GS441524]								
-3.5	-4.07		-3.11	-2.23	-0.821		-0.3349	0.263	-0.726	1.77	NC(=O)c1nc(F)cnc1O [favipiravir, 6-fluoro-3-hydroxy-2-pyrazinecarboxamide]								
-7.02	-1.09	-2.8	-3.32	-1.31	-1.9	-1.19	0.5462	0.884			CC(C)C(=O)OC[C@H]1O[C@@H](n2ccc(NO)nc2=O)[C@H](O)[C@@H]1O [molnupiravir]								

The next lines start with the compound.

Structure (SMILES)	activation at 10 µM [1, 10] [%]	activation at 100 µM [2, 11] [%]	activation at 10 µM [3, 12] [%]	activation at 100 µM [4, 13] [%]	activation at 100 µM [5, 14] [%]	activation at 100 µM [6, 15] [%]	activation at 10 µM [7, 16] [%]	% GPCR activation compared to TPA [8] [%]	activation at 100 µM [9, 17] [%]	activation at 100 µM ([3]; GPCR OXTR (oxytocin Receptor), 100μM, read-out: % GPCR activation compared to TPA) [%]	activation at 100 µM ([7]; GPCR VN1R1 (vomeronasal 1 receptor), 100μM, read-out: % GPCR activation compared to TPA) [%]	activation at 10 µM [1, 18] [%]	activation at 100 µM [2, 19] [%]	activation at 10 µM [3, 20] [%]	activation at 100 µM [4, 21] [%]	activation at 100 µM [5, 22] [%]	activation at 100 µM [6, 23] [%]	activation at 10 µM [7, 24] [%]	activation at 100 µM [9, 25] [%]
CCC(CC)COC(=O)[C@H](C)N[P@](=O)(OC[C@H]1O[C@@](C#N)(c2ccc3c(N)ncnn23)[C@H](O)[C@@H]1O)Oc1ccccc1 [remdesivir]												-1.26	-3.19	0.33	-2.35	-1.2	0.293	3.04	0.199
CC(C)OC(=O)[C@H](C)N[P@](=O)(OC[C@H]1O[C@@H](n2ccc(=O)[nH]c2=O)[C@](C)(F)[C@@H]1O)Oc1ccccc1 [sofosbuvir]								-0.9167				-6.08	-0.32	-3.36	-1.48	-0.849	-1.74	-0.898	-0.65
